Experimental data from US11357779B2 (G1 Therapeutics, Inc., priority 2018, dated 2022).
Read-outs that look alike come from different tables or passages of the source.

Assay: Plasma concentration versus time of Compound I and metabolite Compound III in patients dosed QD or BID with Form B of Compound II plus fulvestrant
Assay type: in vivo, human
Conditions: human, plasma, oral
From the text: Patients were enrolled into 1 of 2 parallel, independently operating, dose-escalation dosing cohorts with Form B of Compound II administered continuously either once daily (QD) or twice daily (BID) with food with fixed-dose fulvestrant (intramuscularly every 14 days for the first three injections and then every 28 days). Pre- or perimenopausal patients also received goserelin for the duration of study treatment. A […] agonist was started at least 28 days before the first dose of Form B, and those patients who were taking another LHRH agonist were switched to goserelin on Day 1. Patients were split into […] cohorts providing once a day (QD) dosing of 200 mg, 300 mg, 400 mg, 500 mg, or 650 mg of Form B, or twice a day (BID) dosing of 100 mg, 150 mg, or 200 mg of Form B. The second dose in BID cohorts was not administered in the evening until at least 12 hours after the initial morning dose of Form B. The dosing cohorts for Form B of Compound II are provided in Table 1.
Blood samples were collected at the following time points relative to the morning dose of Form B at Day 1 and at Day 29: pre-dose (0 hour) and 1, 2, 3, 4, 6, 8, 10, 12 (prior to the evening dose in the BID cohorts), and 24 (prior to the next day's morning dose) hours after dosing. A 5-minute time window was allowed for samples collected between the predose and 3 hours after Form B dosing. A 15-minute window was allowed for samples collected between 4 to 12 hours after Form B dosing. A 1-hour window was allowed for the sample collected 24 hours after Form B dosing. Blood samples for Compound I PK trough levels were collected pre-dose at Day 8, Day 15, and Day 22 prior to the morning administration of Compound I. Plasma concentrations of Compound I and its metabolite, Compound III, were measured using validated methods.
Analysis of plasma concentration versus time data for calculation of standard pharmacokinetic (PK) parameters following oral administration was conducted using Phoenix WinNonlin version 6.3 using actual blood sampling times.

CC(C)N1CCN(c2ccc(Nc3ncc4cc5n(c4n3)C3(CCCCC3)CNC5=O)nc2)CC1 [Compound I, 2′-((5-(4-isopropylpiperazin-1-yl)pyridin-2-yl)amino)-7′,8′-dihydro-6′H-spiro[cyclohexane-1,9′-pyrazino[1′,2′:1,5]pyrrolo[2,3-d]pyrimidin]-6′-one]
concentration at 3 h (200 mg, 200 mg QD of Form B, Day 29, 3.0 h, Median, read-out: Compound I Concentration): 11.8 ng/mL | concentration at 4 h (200 mg, 200 mg QD of Form B, Day 29, 4.0 h, Mean, read-out: Compound I Concentration): 17.5 ng/mL | concentration at 4 h (200 mg, 200 mg QD of Form B, Day 29, 4.0 h, Median, read-out: Compound I Concentration): 18.8 ng/mL | concentration at 6 h (200 mg, 200 mg QD of Form B, Day 29, 6.0 h, Mean, read-out: Compound I Concentration): 18.5 ng/mL | concentration at 6 h (200 mg, 200 mg QD of Form B, Day 29, 6.0 h, Median, read-out: Compound I Concentration): 17.9 ng/mL | concentration at 8 h (200 mg, 200 mg QD of Form B, Day 29, 8.0 h, Mean, read-out: Compound I Concentration): 14.6 ng/mL | concentration at 8 h (200 mg, 200 mg QD of Form B, Day 29, 8.0 h, Median, read-out: Compound I Concentration): 12.1 ng/mL | concentration at 10 h (200 mg, 200 mg QD of Form B, Day 29, 10.0 h, Mean, read-out: Compound I Concentration): 11.1 ng/mL | concentration at 10 h (200 mg, 200 mg QD of Form B, Day 29, 10.0 h, Median, read-out: Compound I Concentration): 8.7 ng/mL | concentration at 12 h (200 mg, 200 mg QD of Form B, Day 29, 12.0 h, Mean, read-out: Compound I Concentration): 8.46 ng/mL | concentration at 12 h (200 mg, 200 mg QD of Form B, Day 29, 12.0 h, Median, read-out: Compound I Concentration): 8.32 ng/mL | concentration at 24 h (200 mg, 200 mg QD of Form B, Day 29, […], Mean, read-out: Compound I Concentration): 6.01 ng/mL | concentration at 24 h (200 mg, 200 mg QD of Form B, Day 29, […], Median, read-out: Compound I Concentration): 4.9 ng/mL | concentration at 0 h (200 mg, Cohort 8, 200 mg BID of Form B, Day 29, 0.0 h, read-out: Compound I Concentration, Mean): 9.74 ng/mL | concentration at 0 h (200 mg, Cohort 8, 200 mg BID of Form B, Day 29, 0.0 h, read-out: Compound I Concentration, Min): 5.47 ng/mL | concentration at 1 h (200 mg, Cohort 8, 200 mg BID of Form B, Day 29, 1.0 h, read-out: Compound I Concentration, Mean): 9.23 ng/mL | concentration at 1 h (200 mg, Cohort 8, 200 mg BID of Form B, Day 29, 1.0 h, read-out: Compound I Concentration, Min): 5.1 ng/mL | concentration at 2 h (200 mg, Cohort 8, 200 mg BID of Form B, Day 29, 2.0 h, read-out: Compound I Concentration, Mean): 12 ng/mL | concentration at 2 h (200 mg, Cohort 8, 200 mg BID of Form B, Day 29, 2.0 h, read-out: Compound I Concentration, Min): 5.56 ng/mL | concentration at 3 h (200 mg, Cohort 8, 200 mg BID of Form B, Day 29, 3.0 h, read-out: Compound I Concentration, Mean): 15.2 ng/mL | concentration at 3 h (200 mg, Cohort 8, 200 mg BID of Form B, Day 29, 3.0 h, read-out: Compound I Concentration, Min): 7.49 ng/mL | concentration at 4 h (200 mg, Cohort 8, 200 mg BID of Form B, Day 29, 4.0 h, read-out: Compound I Concentration, Mean): 21.1 ng/mL | concentration at 4 h (200 mg, Cohort 8, 200 mg BID of Form B, Day 29, 4.0 h, read-out: Compound I Concentration, Min): 7.69 ng/mL | concentration at 6 h (200 mg, Cohort 8, 200 mg BID of Form B, Day 29, 6.0 h, read-out: Compound I Concentration, Max): 28.1 ng/mL | concentration at 6 h (200 mg, Cohort 8, 200 mg BID of Form B, Day 29, 6.0 h, read-out: Compound I Concentration, Mean): 19 ng/mL | concentration at 6 h (200 mg, Cohort 8, 200 mg BID of Form B, Day 29, 6.0 h, read-out: Compound I Concentration, Min): 7.6 ng/mL | concentration at 8 h (200 mg, Cohort 8, 200 mg BID of Form B, Day 29, 8.0 h, read-out: Compound I Concentration, Max): 21.7 ng/mL | concentration at 8 h (200 mg, Cohort 8, 200 mg BID of Form B, Day 29, 8.0 h, read-out: Compound I Concentration, Mean): 14.6 ng/mL | concentration at 8 h (200 mg, Cohort 8, 200 mg BID of Form B, Day 29, 8.0 h, read-out: Compound I Concentration, Min): 7.36 ng/mL | concentration at 10 h (200 mg, Cohort 8, 200 mg BID of Form B, Day 29, 10.0 h, read-out: Compound I Concentration, Max): 38.6 ng/mL | concentration at 10 h (200 mg, Cohort 8, 200 mg BID of Form B, Day 29, 10.0 h, read-out: Compound I Concentration, Mean): 18.6 ng/mL | concentration at 10 h (200 mg, Cohort 8, 200 mg BID of Form B, Day 29, 10.0 h, read-out: Compound I Concentration, Min): 5.61 ng/mL | concentration at 12 h (200 mg, Cohort 8, 200 mg BID of Form B, Day 29, 12.0 h, read-out: Compound I Concentration, Max): 40.8 ng/mL | concentration at 12 h (200 mg, Cohort 8, 200 mg BID of Form B, Day 29, 12.0 h, read-out: Compound I Concentration, Mean): 19.8 ng/mL | concentration at 12 h (200 mg, Cohort 8, 200 mg BID of Form B, Day 29, 12.0 h, read-out: Compound I Concentration, Min): 6.32 ng/mL | concentration at 0 h (300 mg, 300 mg QD of Form B, Day 1, 0.0 h, Mean, read-out: Compound I Concentration): 0 ng/mL | concentration at 0 h (300 mg, 300 mg QD of Form B, Day 1, 0.0 h, Median, read-out: Compound I Concentration): 0 ng/mL | concentration at 1 h (300 mg, 300 mg QD of Form B, Day 1, 1.0 h, Mean, read-out: Compound I Concentration): 22.9 ng/mL | concentration at 1 h (300 mg, 300 mg QD of Form B, Day 1, 1.0 h, Median, read-out: Compound I Concentration): 3.73 ng/mL | concentration at 2 h (300 mg, 300 mg QD of Form B, Day 1, 2.0 h, Mean, read-out: Compound I Concentration): 16.9 ng/mL | concentration at 2 h (300 mg, 300 mg QD of Form B, Day 1, 2.0 h, Median, read-out: Compound I Concentration): 5.96 ng/mL | concentration at 3 h (300 mg, 300 mg QD of Form B, Day 1, 3.0 h, Mean, read-out: Compound I Concentration): 27.1 ng/mL | concentration at 3 h (300 mg, 300 mg QD of Form B, Day 1, 3.0 h, Median, read-out: Compound I Concentration): 13.4 ng/mL | concentration at 4 h (300 mg, 300 mg QD of Form B, Day 1, 4.0 h, Mean, read-out: Compound I Concentration): 32 ng/mL | concentration at 4 h (300 mg, 300 mg QD of Form B, Day 1, 4.0 h, Median, read-out: Compound I Concentration): 19.8 ng/mL | concentration at 6 h (300 mg, 300 mg QD of Form B, Day 1, 6.0 h, Mean, read-out: Compound I Concentration): 31.6 ng/mL | concentration at 6 h (300 mg, 300 mg QD of Form B, Day 1, 6.0 h, Median, read-out: Compound I Concentration): 43.1 ng/mL | concentration at 8 h (300 mg, 300 mg QD of Form B, Day 1, 8.0 h, Mean, read-out: Compound I Concentration): 22.7 ng/mL | concentration at 8 h (300 mg, 300 mg QD of Form B, Day 1, 8.0 h, Median, read-out: Compound I Concentration): 28.1 ng/mL | concentration at 10 h (300 mg, 300 mg QD of Form B, Day 1, 10.0 h, Mean, read-out: Compound I Concentration): 19.9 ng/mL | concentration at 10 h (300 mg, 300 mg QD of Form B, Day 1, 10.0 h, Median, read-out: Compound I Concentration): 18.1 ng/mL | concentration at 12 h (300 mg, 300 mg QD of Form B, Day 1, 12.0 h, Mean, read-out: Compound I Concentration): 15.5 ng/mL | concentration at 12 h (300 mg, 300 mg QD of Form B, Day 1, 12.0 h, Median, read-out: Compound I Concentration): 13.5 ng/mL | concentration at 24 h (300 mg, 300 mg QD of Form B, Day 1, […], Mean, read-out: Compound I Concentration): 8.09 ng/mL | concentration at 24 h (300 mg, 300 mg QD of Form B, Day 1, […], Median, read-out: Compound I Concentration): 8.48 ng/mL | concentration at 0 h (300 mg, 300 mg QD of Form B, Day 29, 0.0 h, Mean, read-out: Compound I Concentration): 13.9 ng/mL | concentration at 0 h (300 mg, 300 mg QD of Form B, Day 29, 0.0 h, Median, read-out: Compound I Concentration): 8.24 ng/mL | concentration at 1 h (300 mg, 300 mg QD of Form B, Day 29, 1.0 h, Mean, read-out: Compound I Concentration): 16.2 ng/mL
